Source: the supplement of paper PMC13380429

Legend:
Conditions in all cases: 72 h
Caco-2 [1] = experiment: cell viability relative to DMSO; higher = less toxic
HepG2 [2] = experiment: as above
Vero E6 [3] = experiment: as above
Calu-3 [4] = experiment: as above
U2OS [5] = experiment: as above
Caco-2 [6] = experiment: drug sensitivity score (DSS) for viability; higher = more toxic; extreme values may be limits of the assay
HepG2 [7] = experiment: as above
Vero E6 [8] = experiment: as above
Calu-3 [9] = experiment: as above
U2OS [10] = experiment: as above
HepG2 [11] = experiment: relative viability EC50 (midpoint between 100% and the lowest measured viability); higher = less toxic
Calu-3 [12] = experiment: as above
U2OS [13] = experiment: as above
Vero E6 [14] = experiment: as above

SMILES | cell viability (Caco-2 [1]; 1 nM) [%] | cell viability (Caco-2 [1]; 10 nM) [%] | cell viability (Caco-2 [1]; 100 nM) [%] | cell viability (Caco-2 [1]; 1000 nM) [%] | cell viability (Caco-2 [1]; 10000 nM) [%] | cell viability (HepG2 [2]; 1 nM) [%] | cell viability (HepG2 [2]; 10 nM) [%] | cell viability (HepG2 [2]; 100 nM) [%] | cell viability (HepG2 [2]; 1000 nM) [%] | cell viability (HepG2 [2]; 10000 nM) [%] | cell viability (Vero E6 [3]; 1 nM) [%] | cell viability (Vero E6 [3]; 10 nM) [%] | cell viability (Vero E6 [3]; 100 nM) [%] | cell viability (Vero E6 [3]; 1000 nM) [%] | cell viability (Vero E6 [3]; 10000 nM) [%] | cell viability (Calu-3 [4]; 1 nM) [%] | cell viability (Calu-3 [4]; 10 nM) [%] | cell viability (Calu-3 [4]; 100 nM) [%] | cell viability (Calu-3 [4]; 1000 nM) [%] | cell viability (Calu-3 [4]; 10000 nM) [%] | cell viability (U2OS [5]; 1 nM) [%] | cell viability (U2OS [5]; 10 nM) [%] | cell viability (U2OS [5]; 100 nM) [%] | cell viability (U2OS [5]; 1000 nM) [%] | cell viability (U2OS [5]; 10000 nM) [%] | drug sensitivity score (Caco-2 [6]) | drug sensitivity score (HepG2 [7]) | drug sensitivity score (Vero E6 [8]) | drug sensitivity score (Calu-3 [9]) | drug sensitivity score (U2OS [10]) | relative viability EC50 (HepG2 [11]) [µM] | relative viability EC50 (Calu-3 [12]) [µM] | relative viability EC50 (U2OS [13]) [µM] | relative viability EC50 (Vero E6 [14]) [µM]
C[C@@H]1COC(Nc2ccc3ncnc(Nc4ccc(OCc5nccs5)c(Cl)c4)c3c2)=N1 | 95.7 | 104 | 97.2 | 81.6 | 67.7 | 100 | 100 | 94.8 | 92.3 | 98.8 | 107 | 99.5 | 94 | 70.7 | 67 | 103 | 107 | 81.8 | 41.3 | 36.1 | 97.8 | 96.7 | 98.9 | 93.3 | 90 | 3.4 | 0 | 5.6 | 13.2 | 0 | > 10 | 0.184 | > 10 | 
Cc1c(C2CCN(CCc3ccccc3)CC2)noc1-c1ccc(Cl)cc1 | 103 | 106 | 99.9 | 98.8 | 68.6 | 102 | 107 | 96.5 | 95.8 | 71.9 | 105 | 99.4 | 103 | 98.3 | 90.3 | 99.9 | 104 | 101 | 108 | 80.9 | 102 | 98.7 | 101 | 97.3 | 96.6 | 1.5 | 1.9 | 0 | 0.3 | 0 |  | > 10 | > 10 | > 10
Cc1cc(CCC[C@H](CC(=O)NO)C(=O)N[C@H](C(=O)N[C@H](C)c2ccccc2)C(C)(C)C)ccc1-c1ccccc1 | 105 | 95.2 | 110 | 99.4 | 51.4 | 110 | 116 | 99.6 | 106 | 35.1 | 103 | 104 | 99.9 | 97 | 67.5 | 101 | 90.9 | 91.8 | 94.8 | 77.5 | 99.1 | 102 | 97.3 | 99.6 | 46.7 | 2.6 | 3.1 | 1.9 | 1.1 | 2.9 | 3.6 | > 10 | 3.12 | 
Oc1cc2c(cc1O)C(c1ccccc1)CNCC2 (stereo not drawn) |  |  |  |  |  | 110 | 104 | 108 | 91.8 | 107 | 104 | 98.2 | 103 | 96.9 | 106 | 77.4 | 103 | 78.6 | 99.6 | 78 | 102 | 102 | 97.3 | 104 | 99 |  | 0 | 0 | 2.2 | 0 | > 10 | > 10 | > 10 | > 10
Cc1c(C)c2c(c(C)c1O)CCC(C)(C)O2 [APC-100] | 90.4 | 118 | 100 | 131 | 71.8 | 120 | 88.6 | 120 | 95.7 | 99.2 | 93.5 | 85.4 | 99.1 | 88.1 | 102 | 96.6 | 95.1 | 100 | 104 | 100 | 91.4 | 100 | 94.3 | 100 | 102 | 0.6 | 0 | 0 | 0 | 0 | > 10 | > 10 | > 10 | > 10
O=C(NOCCO)c1ccc2cncn2c1Nc1ccc(I)cc1F [GDC-0623] | 93.5 | 79.5 | 64.6 | 61.8 | 58.2 | 91.8 | 51.2 | 23.7 | 19.6 | 12.4 | 98.4 | 81.9 | 55.5 | 49.9 | 49.3 | 102 | 78.5 | 52.4 | 36.4 | 31.1 | 95.1 | 92.6 | 93.4 | 62 | 25.5 | 13.8 | 31.7 | 16.8 | 19.7 | 8.6 | 0.0088 | 0.034 | 0.916 | 0.017
COc1cc2nc(C3CC3)nc(N3CCN(c4ccccc4OC)CC3)c2cc1OC [ML314] | 100 | 91.5 | 97.9 | 94.8 | 59 | 102 | 92.4 | 100 | 91.6 | 54.1 | 96.9 | 109 | 95 | 87.6 | 62.9 | 96.6 | 101 | 102 | 92.7 | 78.3 | 96.5 | 97.4 | 91.5 | 98.2 | 87.1 | 2.9 | 3.8 | 3.1 | 1.6 | 0 |  | > 10 | > 10 | 
C=C(C)[C@@H]1CC[C@]2(CO)CC[C@]3(C)[C@H](CC[C@@H]4[C@@]5(C)CC[C@H](O)C(C)(C)[C@@H]5CC[C@]43C)[C@@H]12 [NSC-4644] | 101 | 73.1 | 75.8 | 74.1 | 91.1 | 112 | 99.1 | 96.1 | 81.2 | 89.8 | 84.1 | 95.4 | 96.3 | 92 | 106 | 103 | 103 | 102 | 106 | 90.3 | 96.6 | 95.6 | 103 | 92 | 98.4 | 10.8 | 2.9 | 0 | 0 | 0 | > 10 | > 10 | > 10 | > 10
O=C(c1c(F)ccc(NS(=O)(=O)N2CC[C@@H](F)C2)c1F)c1c[nH]c2ncc(-c3cnc(C4CC4)nc3)cc12 [PLX8394] | 102 | 99.2 | 94.4 | 91.7 | 71.8 | 91 | 90.5 | 106 | 101 | 79.1 | 102 | 96.6 | 104 | 98.8 | 113 | 105 | 105 | 83.6 | 104 | 114 | 96 | 105 | 104 | 107 | 93.3 | 1.9 | 0.6 | 0 | 0 | 0 | > 10 | > 10 | > 10 | > 10
N[C@@H](CSC(c1ccccc1)(c1ccccc1)c1ccccc1)C(=O)O [S-trityl-L-cysteine] | 96.6 | 100 | 85.9 | 98.4 | 61.4 | 83.6 | 93 | 104 | 100 | 40.5 | 98.5 | 100 | 102 | 99.2 | 45 | 105 | 104 | 94.2 | 92.5 | 84.6 | 101 | 104 | 94.6 | 101 | 48.5 | 2.1 | 3.2 | 3 | 0.5 | 2.7 | 3.21 | > 10 | 3.25 | 3.07
CN(C)C(=O)C(=O)c1cn(C)c2cc(Cl)c(C(=O)N3CCC(Cc4ccc(F)cc4)CC3)cc12 [SX-011] | 93.9 | 96.3 | 98.3 | 93.5 | 70.4 | 112 | 102 | 104 | 102 | 86.5 | 110 | 94.6 | 100 | 93.2 | 89.2 | 94.6 | 108 | 116 | 97.3 | 91.2 | 99.1 | 100 | 97.1 | 102 | 91.2 | 2.3 | 0.1 | 0.1 | 0 | 0 | > 10 | > 10 | > 10 | > 10
